The target in test [1] is human Gal-1 (hGal-1). Briefly: Competitive binding assay: binding of biotinylated hGal-1 to microplate-adsorbed asialofetuin (ASF). Particulars: Activities on hGal-1; mean values of several measurements. A digest of the protocol:
(§1)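 Spectrophotometric readout (streptavidin-peroxidase, ABTS) of biotinylated galectin retained on ASF-coated wells. Biotinylated hGal-1 or hGal-3, 300-1000 ng/mL, co-incubated with test compound 3 h at 4° C, then washed. Mean IC50 from repeat runs.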

The target in test [2] is human Gal-3 (hGal-3) (Homo sapiens (Human), UniProt P17931). Briefly: Competitive binding assay: binding of biotinylated hGal-3 to microplate-adsorbed asialofetuin (ASF). Particulars: Activity on hGal-3; mean values of several measurements. A digest of the protocol:
as §1

The structures appear in SMILES notation. pIC50: −log10 of the molar value.

The pIC50 is the negative decadic logarithm of the IC50, by convention in mol/L. Low readings indicate a high IC50, high ones a low IC50.

Chain of human Gal-3 (hGal-3) (P17931 whole entry): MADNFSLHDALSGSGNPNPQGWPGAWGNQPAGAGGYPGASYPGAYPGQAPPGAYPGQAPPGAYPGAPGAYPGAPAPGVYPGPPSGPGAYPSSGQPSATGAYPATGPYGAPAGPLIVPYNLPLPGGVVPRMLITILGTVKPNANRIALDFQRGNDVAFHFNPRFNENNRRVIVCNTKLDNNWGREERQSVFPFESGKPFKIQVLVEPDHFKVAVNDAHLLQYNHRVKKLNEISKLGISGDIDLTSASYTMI
Chain of human Gal-1 (hGal-1) (P09382 2-135 limits assumed): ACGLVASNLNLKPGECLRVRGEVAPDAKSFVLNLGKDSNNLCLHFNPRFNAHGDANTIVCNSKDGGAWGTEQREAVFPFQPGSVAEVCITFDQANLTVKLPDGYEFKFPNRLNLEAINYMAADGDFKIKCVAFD

On to `CO[C@@H]1[C@@H](n2cc(-c3cc(F)c(F)c(F)c3)nn2)[C@@H](O)[C@@H](CO)O[C@@H]1Cc1cc(C2CCN(C(=O)N(C)C)CC2)on1` [Example 3.69, 4-(3-(((2R,3R,4S,5R,6R)-5-hydroxy-6-(hydroxymethyl)-3-methoxy-4-(4-(3,4,5-trifluorophenyl)-1H-1,2,3-triazol-1-yl)tetrahydro-2H-pyran-2-yl)methyl)isoxazol-5-yl)-N,N-dimethylpiperidine-1-carboxamide], for which the negative-log IC50 (pIC50) is 5.61 in test [1] and 6.77 in test [2].
As to `CO[C@@H]1[C@@H](n2cc(-c3cc(F)c(F)c(F)c3)nn2)[C@@H](O)[C@@H](CO)O[C@@H]1Cc1cc(C2CCN(C(=O)N3CCN(C)CC3)CC2)on1` [Example 3.70, (4-(3-(((2R,3R,4S,5R,6R)-5-hydroxy-6-(hydroxymethyl)-3-methoxy-4-(4-(3,4,5-trifluorophenyl)-1H-1,2,3-triazol-1-yl)tetrahydro-2H-pyran-2-yl)methyl)isoxazol-5-yl)piperidin-1-yl)(4-methylpiperazin-1-yl)methanone], the pIC50 in test [1] is 6.09; in test [2], 7.08.
The like results for `CO[C@@H]1[C@@H](n2cc(-c3cc(F)c(F)c(F)c3)nn2)[C@@H](O)[C@@H](CO)O[C@@H]1Cn1cc(-c2cccc(F)c2)nn1` [Example 4.01, (2R,3R,4S,5R,6R)-6-((4-(3-fluorophenyl)-1H-1,2,3-triazol-1-yl)methyl)-2-(hydroxymethyl)-5-methoxy-4-(4-(3,4,5-trifluorophenyl)-1H-1,2,3-triazol-1-yl)tetrahydro-2H-pyran-3-ol] were, in that order, 4.87 and 5.91.
The like results for `CO[C@@H]1[C@@H](n2cc(-c3cc(F)c(F)c(F)c3)nn2)[C@@H](O)[C@@H](CO)O[C@@H]1Cn1cc(-c2ccc3[nH]c(=O)oc3c2)nn1` [Example 4.02, 6-(1-(((2R,3R,4S,5R,6R)-5-hydroxy-6-(hydroxymethyl)-3-methoxy-4-(4-(3,4,5-trifluorophenyl)-1H-1,2,3-triazol-1-yl)tetrahydro-2H-pyran-2-yl)methyl)-1H-1,2,3-triazol-4-yl)benzo[d]oxazol-2(3H)-one] were, in that order, 4.69 and 6.16.
For the compound `CO[C@@H]1[C@@H](n2cc(-c3cc(F)c(F)c(F)c3)nn2)[C@@H](O)[C@@H](CO)O[C@@H]1Cc1cn(C2CCOCC2)nn1` [Example 4.03, (2R,3R,4S,5R,6R)-2-(hydroxymethyl)-5-methoxy-6-((1-(tetrahydro-2H-pyran-4-yl)-1H-1,2,3-triazol-4-yl)methyl)-4-(4-(3,4,5-trifluorophenyl)-1H-1,2,3-triazol-1-yl)tetrahydro-2H-pyran-3-ol], the negative logarithm of the IC50 (pIC50) in test [1] is 5.75; in test [2], 7.12.
For `CO[C@@H]1[C@@H](n2cc(-c3cc(F)c(F)c(F)c3)nn2)[C@@H](O)[C@@H](CO)O[C@@H]1Cn1cc(C2CCN(C(C)=O)CC2)nn1` [Example 4.04, 1-(4-(1-(((2R,3R,4S,5R,6R)-5-hydroxy-6-(hydroxymethyl)-3-methoxy-4-(4-(3,4,5-trifluorophenyl)-1H-1,2,3-triazol-1-yl)tetrahydro-2H-pyran-2-yl)methyl)-1H-1,2,3-triazol-4-yl)piperidin-1-yl)ethan-1-one], in that order: 6.15 and 7.36.
The like results for `CO[C@@H]1[C@@H](n2cc(-c3cc(F)c(F)c(F)c3)nn2)[C@@H](O)[C@@H](CO)O[C@@H]1Cc1cn(C2CCN(C(=O)OC(C)(C)C)CC2)nn1` [Example 4.05, tert-butyl 4-(4-(((2R,3R,4S,5R,6R)-5-hydroxy-6-(hydroxymethyl)-3-methoxy-4-(4-(3,4,5-trifluorophenyl)-1H-1,2,3-triazol-1-yl)tetrahydro-2H-pyran-2-yl)methyl)-1H-1,2,3-triazol-1-yl)piperidine-1-carboxylate] were, in that order, 6.85 and 7.46.

The values are drawn from US12319672B2, “Alpha-D-galactopyranoside derivatives” (Idorsia Pharmaceuticals Ltd, priority 2019, dated 2025).
